PubChem BioAssay AID248 (DTP/NCI, 2004)
Several values for one entry are separate records, joined by “and”; a condition that tells them apart may be missing. Equal entries are not always repeated. Inconclusive results and toxic doses are left out. Rule as the data show it: active = T/C of 150% or more; inactive = T/C below 125%.

Tested on: L1210 leukemia ip in BDF1 mice, survival T/C
Experiment: NCI In Vivo Anticancer Drug Screen. Data for tumor model L1210 Leukemia (intraperitoneal) in B6D2F1 (BDF1) mice
Settings: endpoint: mean survival time, higher = longer survival
Summary of the method: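 Survival endpoint. Drug-treated group vs vehicle group, expressed as T divided by C. Tumor passaged by transplantation.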

[1] = dose: 75.0 mg/kg/injection, schedule: Q01DX001 (ip), vehicle: carboxymethylcellulose (CMC)
[2] = dose: 100.0 mg/kg/injection, schedule: Q01DX001 (ip), vehicle: carboxymethylcellulose (CMC)
[3] = dose: 200.0 mg/kg/injection, schedule: Q01DX001 (ip), vehicle: carboxymethylcellulose (CMC)
[4] = dose: 400.0 mg/kg/injection, schedule: Q01DX001 (ip), vehicle: carboxymethylcellulose (CMC)
[5] = dose: 100.0 mg/kg/injection, schedule: Q04DX003 (ip), vehicle: saline with Tween-80
[6] = dose: 200.0 mg/kg/injection, schedule: Q04DX003 (ip), vehicle: saline with Tween-80
[7] = dose: 400.0 mg/kg/injection, schedule: Q04DX003 (ip), vehicle: saline with Tween-80
[8] = dose: 100.0 mg/kg/injection, schedule: Q01DX009 (ip), vehicle: Klucel (hydroxypropylcellulose) (HPC)
[9] = dose: 6.25 mg/kg/injection, schedule: Q04DX003 (ip), vehicle: saline

Measured: T/C

Cc1ccc(NC(=O)N(CCCl)N=O)c(NC(=O)N(CCCl)N=O)c1
inactive: dose: 30.0 mg/kg/injection, schedule: Q01DX001 (ip), vehicle: carboxymethylcellulose (CMC) 117 % of control | dose: 33.0 mg/kg/injection, schedule: Q01DX001 (ip), vehicle: carboxymethylcellulose (CMC) 107 % of control | dose: 33.0 mg/kg/injection, schedule: Q01DX009 (ip), vehicle: carboxymethylcellulose (CMC) 108 % of control | dose: 50.0 mg/kg/injection, schedule: Q01DX009 (ip), vehicle: carboxymethylcellulose (CMC) 88 % of control | [1] 113 % of control | dose: 112.0 mg/kg/injection, schedule: Q01DX001 (ip), vehicle: carboxymethylcellulose (CMC) 96 % of control

Oc1ccc(Br)cc1/C=N/c1nc(-c2ccccc2)cs1.Oc1ccc(Br)cc1/C=N/c1nc(-c2ccccc2)cs1.[Zn]
inactive: dose: 100.0 mg/kg/injection, schedule: Q01DX001 (ip), vehicle: saline 86 % of control

C=C(C)Cn1cnc2c1c(=O)n(C)c(=O)n2C
inactive: dose: 100.0 mg/kg/injection, schedule: Q04DX003 (ip), vehicle: saline 103 % of control | dose: 200.0 mg/kg/injection, schedule: Q04DX003 (ip), vehicle: saline 98 % of control | dose: 400.0 mg/kg/injection, schedule: Q04DX003 (ip), vehicle: saline 89 % of control

O=C(O)CCSC(=S)Nc1ccccc1O
inactive: [2] 103 % of control | [3] 93 % of control | [4] 98 % of control

O=C(O)C1(c2ccc(-c3ccccc3)cc2)CCCCC1
inactive: [5] 96 % of control | [6] 96 % of control | [7] 100 % of control

CCC(=O)OCNC(=O)NCc1ccco1
inactive: dose: 222.0 mg/kg/injection, schedule: Q01DX Z (ip), vehicle: methylcellulose (MC) 103 % of control | dose: 333.0 mg/kg/injection, schedule: Q01DX Z (ip), vehicle: methylcellulose (MC) 105 % of control | dose: 500.0 mg/kg/injection, schedule: Q01DX Z (ip), vehicle: methylcellulose (MC) 94 % of control

Nc1nc(N)[n+]([O-])c(N)c1NCO
inactive: dose: 88.0 mg/kg/injection, schedule: Q01DX001 (ip), vehicle: other 101 % of control | dose: 100.0 mg/kg/injection, schedule: Q01DX001 (ip), vehicle: other 97 % of control | dose: 133.0 mg/kg/injection, schedule: Q01DX001 (ip), vehicle: other 103 % of control | dose: 300.0 mg/kg/injection, schedule: Q01DX001 (ip), vehicle: other 103 % of control | dose: 400.0 mg/kg/injection, schedule: Q01DX001 (ip), vehicle: other 94 % of control

COc1ccc(CCCCCl)cc1
inactive: dose: 100.0 mg/kg/injection, schedule: Q01DX001 (ip), vehicle: acetone 95 % of control | dose: 200.0 mg/kg/injection, schedule: Q01DX001 (ip), vehicle: acetone 95 % of control | dose: 400.0 mg/kg/injection, schedule: Q01DX001 (ip), vehicle: acetone 96 % of control

CN(C)CCS(=O)(=O)CCc1ccccc1
inactive: [1] 106 % of control | dose: 150.0 mg/kg/injection, schedule: Q01DX001 (ip), vehicle: carboxymethylcellulose (CMC) 98 % of control | dose: 300.0 mg/kg/injection, schedule: Q01DX001 (ip), vehicle: carboxymethylcellulose (CMC) 101 % of control

CNCCC(=O)C1CCC(OC)CC1 (stereo not drawn)
inactive: dose: 100.0 mg/kg/injection, schedule: Q04DX002 (ip), vehicle: saline 92 % of control | dose: 200.0 mg/kg/injection, schedule: Q04DX002 (ip), vehicle: saline 110 % of control

Cc1cc(C)c(NC(=O)c2ccccc2Cl)c(C)c1
inactive: dose: 100.0 mg/kg/injection, schedule: Q01DX009 (ip), vehicle: saline with Tween-80 93 % of control | dose: 200.0 mg/kg/injection, schedule: Q01DX009 (ip), vehicle: saline with Tween-80 93 % of control | dose: 400.0 mg/kg/injection, schedule: Q01DX009 (ip), vehicle: saline with Tween-80 97 % of control

O=C(Oc1cccc(O)c1)c1ccccc1
inactive: [8] 100 % of control | dose: 200.0 mg/kg/injection, schedule: Q01DX009 (ip), vehicle: Klucel (hydroxypropylcellulose) (HPC) 102 % of control | dose: 400.0 mg/kg/injection, schedule: Q01DX009 (ip), vehicle: Klucel (hydroxypropylcellulose) (HPC) 94 % of control

CCC(Cl)COP(=O)(OCC(Cl)CC)C(CC)CCl (stereo not drawn)
inactive: [2] 93 % of control | dose: 100.0 mg/kg/injection, schedule: Q01DX009 (ip), vehicle: carboxymethylcellulose (CMC) 98 % of control and 91 % of control | dose: 100.0 mg/kg/injection, schedule: Q04DX002 (ip), vehicle: carboxymethylcellulose (CMC) 94 % of control and 95 % of control | dose: 100.0 mg/kg/injection, schedule: Q04DX003 (ip), vehicle: carboxymethylcellulose (CMC) 101 % of control | [3] 96 % of control | dose: 200.0 mg/kg/injection, schedule: Q01DX009 (ip), vehicle: carboxymethylcellulose (CMC) 94 % of control and 103 % of control | dose: 200.0 mg/kg/injection, schedule: Q04DX002 (ip), vehicle: carboxymethylcellulose (CMC) 95 % of control and 102 % of control | dose: 200.0 mg/kg/injection, schedule: Q04DX003 (ip), vehicle: carboxymethylcellulose (CMC) 96 % of control | [4] 96 % of control | dose: 400.0 mg/kg/injection, schedule: Q01DX009 (ip), vehicle: carboxymethylcellulose (CMC) 105 % of control and 106 % of control | dose: 400.0 mg/kg/injection, schedule: Q04DX002 (ip), vehicle: carboxymethylcellulose (CMC) 94 % of control and 95 % of control | dose: 400.0 mg/kg/injection, schedule: Q04DX003 (ip), vehicle: carboxymethylcellulose (CMC) 98 % of control

CCCCC(CC)(CO)CO
inactive: [5] 110 % of control | [6] 100 % of control | [7] 111 % of control

O=C(c1ccccc1)C(Cl)c1ccccc1 (stereo not drawn)
inactive: dose: 25.0 mg/kg/injection, schedule: Q01DX009 (ip), vehicle: Klucel (hydroxypropylcellulose) (HPC) 105 % of control | dose: 50.0 mg/kg/injection, schedule: Q01DX009 (ip), vehicle: Klucel (hydroxypropylcellulose) (HPC) 111 % of control | [8] 107 % of control

C#CC(=O)OC
inactive: dose: 0.78 mg/kg/injection, schedule: Q01DX009 (ip), vehicle: saline 103 % of control | dose: 1.56 mg/kg/injection, schedule: Q01DX009 (ip), vehicle: saline 103 % of control | dose: 1.56 mg/kg/injection, schedule: Q04DX003 (ip), vehicle: saline 103 % of control | dose: 3.12 mg/kg/injection, schedule: Q01DX009 (ip), vehicle: saline 97 % of control | dose: 3.12 mg/kg/injection, schedule: Q04DX003 (ip), vehicle: saline 95 % of control | dose: 4.6 mg/kg/injection, schedule: Q01DX009 (ip), vehicle: saline 98 % of control | [9] 94 % of control | dose: 7.0 mg/kg/injection, schedule: Q01DX009 (ip), vehicle: saline 93 % of control | dose: 10.0 mg/kg/injection, schedule: Q01DX009 (ip), vehicle: saline 101 % of control

NC1=N/C(=C/[N+](=O)[O-])c2ccccc21
inactive: [9] 93 % of control | dose: 12.5 mg/kg/injection, schedule: Q04DX003 (ip), vehicle: saline 96 % of control

COC(=O)C1=NN(C(C)=O)C(c2ccc(C)cc2)(c2ccc(C)cc2)C1
inactive: dose: 100.0 mg/kg/injection, schedule: Q01DX001 (ip), vehicle: steriod suspending solution 105 % of control | dose: 200.0 mg/kg/injection, schedule: Q01DX001 (ip), vehicle: steriod suspending solution 87 % of control | dose: 400.0 mg/kg/injection, schedule: Q01DX001 (ip), vehicle: steriod suspending solution 92 % of control

CCOC(=O)c1c[nH]c2ccc([N+](=O)[O-])cc2c1=O
inactive: dose: 25.0 mg/kg/injection, schedule: Q01DX001 (ip), vehicle: Klucel (hydroxypropylcellulose) (HPC) 97 % of control | dose: 50.0 mg/kg/injection, schedule: Q01DX001 (ip), vehicle: Klucel (hydroxypropylcellulose) (HPC) 97 % of control | dose: 100.0 mg/kg/injection, schedule: Q01DX001 (ip), vehicle: Klucel (hydroxypropylcellulose) (HPC) 97 % of control
